# Experimental data as given in the supplement of paper PMC10307832.
# What was measured:
# Test in all cases: relative viability (nuclei count vs DMSO), 5 days (fraction); higher = more cells survive
# [1] = compound: O=C(Nc1cc(C(F)(F)F)cc(C(F)(F)F)c1)c1cc(Cl)ccc1O [IMD-0354] + CC(=O)c1c(C)c2cnc(Nc3ccc(N4CCNCC4)cn3)nc2n(C2CCCC2)c1=O [Palbociclib] (partner 0.5 µM)
# Procedure, shortened: (§1)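 A single step with final 0.05% Triton X-100, 1% formaldehyde and 1 ug/ml Hoechst fixed the cells and stained nuclei 5 days after treatment. Lung cancer cell lines in 1536-well plates had been treated by pin tool the day after seeding with one drug alone or a fixed anchor-drug dose plus five library-drug doses (not always all listed) in √10 steps, and nuclei were counted on 4× images. Relative viability is the ratio of nuclei in treated wells to nuclei in vehicle wells, taken as the median of duplicate plates.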
# [2] = compound: O=C(Nc1cc(C(F)(F)F)cc(C(F)(F)F)c1)c1cc(Cl)ccc1O [IMD-0354] + CCNC(=O)c1noc(-c2cc(C(C)C)c(O)cc2O)c1-c1ccc(CN2CCOCC2)cc1 [Luminespib] (partner 0.01 µM)
# Procedure, shortened: as §1
# [3] = compound: Cc1cnc(CNC(=O)c2c(=O)c3ccc(N4CCCN(C)CC4)nc3n3c2sc2ccccc23)cn1 [CX-5461] + N=C(N)NC(=N)NCCc1ccccc1 [Phenformin] (partner 250 µM)
# Procedure, shortened: as §1
# [4] = compound: O=C(Nc1cc(C(F)(F)F)cc(C(F)(F)F)c1)c1cc(Cl)ccc1O [IMD-0354] + COc1cccc2cc(-c3nc([C@H]4CC[C@H](C(=O)O)CC4)n4ncnc(N)c34)[nH]c12 [OSI-027] (partner 0.5 µM)
# Procedure, shortened: as §1
cell line,measurement,setting,value
UMC-11,relative viability,[1]; first compound 0.04 µM,0.344
same,relative viability,[1]; first compound 0.1265 µM,0.303
same,relative viability,[1]; first compound 0.4 µM,0.323
same,relative viability,[1]; first compound 1.265 µM,0.215
same,relative viability,[1]; first compound 4 µM,0.18
same,relative viability,[2]; first compound 0.04 µM,1.1
same,relative viability,[2]; first compound 0.1265 µM,0.888
same,relative viability,[2]; first compound 0.4 µM,0.434
same,relative viability,[2]; first compound 1.265 µM,0.27
same,relative viability,[2]; first compound 4 µM,0.273
same,relative viability,[3]; first compound 0.01 µM,0.323
same,relative viability,[3]; first compound 0.03162 µM,0.298
same,relative viability,[3]; first compound 0.1 µM,0.246
same,relative viability,[3]; first compound 0.3162 µM,0.293
same,relative viability,[3]; first compound 1 µM,0.217
same,relative viability,[4]; first compound 0.04 µM,0.57
same,relative viability,[4]; first compound 0.1265 µM,0.469
same,relative viability,[4]; first compound 0.4 µM,0.3
same,relative viability,[4]; first compound 1.265 µM,0.215
same,relative viability,[4]; first compound 4 µM,0.205
